Test results as given in patent US10183950B2, “Thienopyrimidine inhibitors of atypical protein kinase C” (Cancer Research Technology Limited, priority 2011, dated 2019).

Target: T1, full-length human PKCι (Homo sapiens, UniProt P41743)
T1 construct: Recombinant, full-length human PKCι expressed in Sf21 insect cells is also commercially available; purchased; host or cells: Sf21 insect cells
T1 sequence (P41743 1-596): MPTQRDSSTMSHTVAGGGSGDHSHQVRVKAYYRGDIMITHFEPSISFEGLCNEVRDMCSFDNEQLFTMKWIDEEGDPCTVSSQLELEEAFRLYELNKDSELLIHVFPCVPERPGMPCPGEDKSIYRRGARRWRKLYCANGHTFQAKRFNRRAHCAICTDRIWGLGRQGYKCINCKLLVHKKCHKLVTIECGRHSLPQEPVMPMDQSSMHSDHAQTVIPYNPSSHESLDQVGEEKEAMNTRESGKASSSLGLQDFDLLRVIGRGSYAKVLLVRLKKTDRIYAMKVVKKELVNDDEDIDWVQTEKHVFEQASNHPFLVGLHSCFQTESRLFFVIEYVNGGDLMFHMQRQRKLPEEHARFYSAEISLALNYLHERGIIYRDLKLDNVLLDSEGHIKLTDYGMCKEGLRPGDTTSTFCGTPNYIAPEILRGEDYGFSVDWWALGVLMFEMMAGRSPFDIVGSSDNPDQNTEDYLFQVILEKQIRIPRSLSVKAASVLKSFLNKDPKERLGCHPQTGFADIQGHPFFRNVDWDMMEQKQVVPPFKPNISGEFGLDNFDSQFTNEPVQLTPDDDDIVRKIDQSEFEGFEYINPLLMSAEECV
Assay: PKCι IC50 IMAP fluorescence polarisation assay, full-length enzyme
Assay type: biochemical
Conditions: full length PKCi at 15 μM ATP; read-out: IC50 in IMAP assay against full length PKCi

IC50, 0.1 to 1 µM:
CC(C)[C@H](N)CNc1nc(-c2ccncc2)nc2c(Br)csc12 [compound 347, (S)-N*1*-(7-Bromo-2-pyridin-4-yl-thieno[3,2-d]pyrimidin-4-yl)-3-methyl-butane-1,2-diamine]
C[C@H](O)CC#Cc1csc2c(NC[C@@H](N)Cc3ccccc3)nc(-c3ccncc3)nc12 [compound 540, (S)-5-[4-((S)-2-Amino-3-phenyl-propylamino)-2-pyridin-4-yl-thieno[3,2-d]pyrimidin-7-yl]-pent-4-yn-2-ol]
Fc1ccccc1Nc1csc2c(N[C@@H]3CCNC3)nc(-c3ccncc3F)nc12 [compound 500, N*7*-(2-Fluoro-phenyl)-2-(3-fluoro-pyridin-4-yl)-N*4*-(R)-pyrrolidin-3-yl-thieno[3,2-d]pyrimidine-4,7-diamine]
N[C@H](CNc1nc(-c2ccncc2F)nc2c(C#CC3(O)CCC3)csc12)Cc1ccccc1 [compound 507, 1-[4-((S)-2-Amino-3-phenyl-propylamino)-2-(3-fluoro-pyridin-4-yl)-thieno[3,2-d]pyrimidin-7-ylethynyl]-cyclobutanol]
C[C@H](N)CNc1nc(-c2ccncc2)nc2c(Br)csc12 [compound 305, (S)—N*1*-(7-Bromo-2-pyridin-4-yl-thieno[3,2-d]pyrimidin-4-yl)-propane-1,2-diamine]
CCC[C@H](O)C#Cc1csc2c(NC[C@@H](N)Cc3ccccc3)nc(-c3ccncc3)nc12 [compound 526, (S)-1-[4-((S)-2-Amino-3-phenyl-propylamino)-2-pyridin-4-yl-thieno[3,2-d]pyrimidin-7-yl]-hex-1-yn-3-ol]
N[C@H](CNc1nc(-c2ccncc2)nc2c(-n3cccn3)csc12)Cc1ccccc1 [compound 561, (S)-3-Phenyl-N*1*-(7-pyrazol-1-yl-2-pyridin-4-yl-thieno [3,2-d]pyrimidin-4-yl)-propane-1,2-diamine]
N[C@H](CNc1nc(-c2ccncc2)nc2c(C#Cc3ccccn3)csc12)Cc1ccccc1 [compound 529, (S)-3-Phenyl-N*1*-(2-pyridin-4-yl-7-pyridin-2-ylethynyl-thieno[3,2-d]pyrimidin-4-yl)-propane-1,2-diamine]
N[C@H](CNc1nc(-c2ccncc2)nc2c(-c3ccon3)csc12)Cc1ccccc1 [compound 572, (S)-N*1*-(7-Isoxazol-3-yl-2-pyridin-4-yl-thieno[3,2-d]pyrimidin-4-yl)-3-phenyl-propane-1,2-diamine]

IC50, 10 to 40 µM:
Cc1sc2c(NC[C@@H](N)Cc3ccccc3)nc(-c3ccncc3)nc2c1-c1c(Cl)cccc1C(F)(F)F [compound 452, (S)-N*1*-[7-(2-Chloro-6-trifluoromethyl-phenyl)-6-methyl-2-pyridin-4-yl-thieno[3,2-d]pyrimidin-4-yl]-3-phenyl-propane-1,2-diamine]
Cc1c(-c2ccnn2C)sc2c(N[C@@H]3CCNC3)nc(-c3ccncc3)nc12 [compound 469, [7-Methyl-6-(2-methyl-2H-pyrazol-3-yl)-2-pyridin-4-yl-thieno[3,2-d]pyrimidin-4-l]-(R)-pyrrolidin-3-yl-amine]
COc1ccc(C(C)C)cc1-c1c(C)sc2c(NC[C@@H](N)Cc3ccccc3)nc(-c3ccncc3)nc12 [compound 462, (S)-N*1*-[7-(5-Isopropyl-2-methoxy-phenyl)-6-methyl-2-pyridin-4-yl-thieno[3,2-d]pyrimidin-4-yl]-3-phenyl-propane-1,2-diamine]
CC(C)(C)c1sc2c(NC[C@@H](N)Cc3ccccc3)nc(-c3ccncc3)nc2c1-c1ccccc1 [compound 451, (S)-N*1*-(6-tert-Butyl-7-phenyl-2-pyridin-4-yl-thieno[3,2-d]pyrimidin-4-yl)-3-phenyl-propane-1,2-diamine]
O=S(=O)(Nc1cc(-c2nc(N[C@@H]3CCNC3)c3sccc3n2)ccn1)c1ccccc1 [compound 576, N-{4-[4-((R)-Pyrrolidin-3-ylamino)-thieno[3,2-d]pyrimidin-2-yl]-pyridin-2-yl}-benzenesulfonamide]
O=C(Nc1csc2c(N[C@@H]3CCNC3)nc(-c3ccncc3)nc12)C1CCCC1 [compound 475, Cyclopentanecarboxylic acid [2-pyridin-4-yl-4-((R)-pyrrolidin-3-ylamino)-thieno[3,2-d]pyrimidin-7-yl]-amide]

IC50, < 0.1 µM:
N[C@H](CNc1nc(-c2ccncc2)nc2c(Nc3ccccn3)csc12)Cc1ccccc1 [compound 486, N*4*-((S)-2-Amino-3-phenyl-propyl)-2-pyridin-4-yl-N*7*-pyridin-2-yl-thieno[3,2-d]pyrimidine-4,7-diamine]
N[C@H](CNc1nc(-c2ccncc2)nc2c(C#CCO)csc12)Cc1ccccc1 [compound 515, 3-[4-((S)-2-Amino-3-phenyl-propylamino)-2-pyridin-4-yl-thieno[3,2-d]pyrimidin-7-yl]-prop-2-yn-1-ol]
CNC(=O)c1csc2c(NC[C@@H](N)Cc3ccccc3)nc(-c3ccncc3)nc12 [compound 553, 4-((S)-2-Amino-3-phenyl-propylamino)-2-pyridin-4-yl-thieno[3,2-d]pyrimidine-7-carboxylic acid methylamide]
N[C@H](CNc1nc(-c2ccncc2)nc2c(C#CC3(O)CC3)csc12)Cc1ccccc1 [compound 532, 1-[4-((S)-2-Amino-3-phenyl-propylamino)-2-pyridin-4-yl-thieno[3,2-d]pyrimidin-7-ylethynyl]-cyclopropanol]

IC50, 1 to 10 µM:
Cc1c(C#CC(C)(C)O)sc2c(N[C@@H]3CCNC3)nc(-c3ccncc3)nc12 [compound 502, 2-Methyl-4-[7-methyl-2-pyridin-4-yl-4-((R)-pyrrolidin-3-ylamino)-thieno[3,2-d]pyrimidin-6-yl]-but-3-yn-2-ol]
NCc1coc(-c2csc3c(NC[C@@H](N)Cc4ccccc4)nc(-c4ccncc4F)nc23)c1 [compound 435, S)-N*1*-[7-(4-Aminomethyl-furan-2-yl)-2-(3-fluoro-pyridin-4-yl)-thieno[3,2-d]pyrimidin-4-yl]-3-phenyl-propane-1,2-diamine]
N[C@H](CNc1nc(-c2ccncc2)nc2c(-c3ccc(Br)cc3)csc12)Cc1ccccc1 [compound 326, (S)-N*1*-[7-(4-Bromo-phenyl)-2-pyridin-4-yl-thieno[3,2-d]pyrimidin-4-yl]-3-phenyl-propane-1,2-diamine]
N[C@H](CNc1nc(-c2ccncc2F)nc2c(Nc3ccccc3)csc12)Cc1ccccc1 [compound 491, N*4*-((S)-2-Amino-3-phenyl-propyl)-2-(3-fluoro-pyridin-4-yl)-N*7*-phenyl-thieno[3,2-d]pyrimidine-4,7-diamine]
O=C(Nc1cc(-c2nc(N[C@H]3CNC[C@@H]3O)c3sccc3n2)ccn1)c1cccs1 [compound 627, Thiophene-2-carboxylic acid {4-[4-((3S,4S)-4-hydroxy-pyrrolidin-3-ylamino)-thieno[3,2-d]pyrimidin-2-yl]-pyridin 2-yl}-amide]
NC(CNc1nc(-c2ccncc2F)nc2c(-c3cccnc3)csc12)Cc1ccccc1 (stereo in doubt) [compound 423, (R)-N*1*-[2-(3-Fluoro-pyridin-4-yl)-7-pyridin-3-yl-thieno[3,2-d]pyrimidin-4-yl]-3-phenyl-propane-1,2-diamine]
CN(C)S(=O)(=O)c1ccc(Nc2cc(-c3nc(N[C@@H]4CCNC4)c4sccc4n3)ccn2)cc1 [compound 610, N,N-Dimethyl-4-{4-[4-((R)-pyrrolidin-3-ylamino)-thieno[3,2-d]pyrimidin-2-yl]-pyridin-2-ylamino}-benzenesulfonamide]

Same assay, conditions: full length PKCi at 15 μM ATP; read-out: IC50 in IMAP assay against full length PKCi (Activity)

IC50, 0.1 to 1 µM:
N[C@H](CNc1nc(-c2ccncc2)nc2sc3c(c12)CCCC3)Cc1cccc(O)c1 [compound 66, 3-[(S)-2-Amino-3-(2-pyridin-4-yl-5,6,7,8-tetrahydro-benzo[4,5]thieno[2,3-d]pyrimidin-4-ylamino)-propyl]-phenol]

IC50, 1 to 10 µM:
c1cc(-c2nc(O[C@@H]3CCNC3)c3c4c(sc3n2)CCCC4)ccn1 [compound 139, 2-Pyridin-4-yl-4-((R)-pyrrolidin-3-yloxy)-5,6,7,8-tetrahydro-benzo[4,5]thieno[2,3-d]pyrimidine]
COc1cccc(C[C@H](N)CNc2nc(-c3ccncc3)nc3sc4c(c23)CCCC4)c1 [compound 54, (S)-3-(3-Methoxy-phenyl)-N*1*-(2-pyridin-4-yl-5,6,7,8-tetrahydro-benzo[4,5]thieno[2,3-d]pyrimidin-4-yl)-propane-1,2-diamine]
N[C@H](CNc1nc(-c2ccncc2)nc2sc3c(c12)CCC1(C3)OCCO1)Cc1ccccc1 [compound 78, (S)-3-Phenyl-N*1*-*-1,4-Dioxa-spiro[7.7]-(2-pyridin-4-yl-5,6,7,8-tetrahydro-benzo[4,5]thieno[2,3-d]pyrimidin-4-yl)-propane-1,2-diamine]

IC50, 10 to 40 µM:
CCC(=O)N1CCc2c(sc3nc(-c4ccncc4)nc(NCCN)c23)C1 [compound 106, 1-[4-(2-Amino-ethylamino)-2-pyridin-4-yl-5,8-dihydro-6H-pyrido[4′,3′:4,5]thieno[2,3-d]pyrimidin-7-yl]-propan-1-one]
